Measured values as given in US20230065953A1, “NOVEL HETEROARYL-TRIAZOLE COMPOUNDS AS PESTICIDES” (Bayer Aktiengesellschaft, priority 2019, published 2023).

Key:
Type in all cases: in vivo
[1] = test system: Rhipicephalus microplus larvae (strain Parkhurst, resistant against synthetic pyrethroids); assay: Rhipicephalus (Boophilus) microplus in-vitro contact test, larval cattle tick; details: 5 μg/cm^2 (=500 g/ha), after 48 hours, read-out: efficacy (larvae dead or moribund)
Method in brief: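 Larvae exposed by contact to a dried acetone film on glass; a 900 ppm solution yields 5 μg/cm^2. Scoring after 48 h at 27° C. counts dead plus moribund larvae as efficacy.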

[2] = test system: cattle ticks (Rhipicephalus microplus) strain Parkhurst, SP-resistant; assay: Rhipicephalus (Boophilus) microplus dip test; details: 100 ppm, egg deposition after 7 days
Method: Rhipicephalus (Boophilus) Microplus—Dip Test
Test animal: cattle ticks (Rhipicephalus microplus) strain Parkhurst, SP-resistant
Solvent: dimethyl sulfoxide
To produce a suitable preparation of active compound, 10 mg of active compound are dissolved in 0.5 mL solvent, and the concentrate is diluted with water to the desired concentration.
This compound solution is pipetted into tubes. 8-10 engorged, adult, female cattle ticks (Rhipicephalus microplus) are placed in perforated tubes. These tubes are immersed in the aqueous compound solution until the ticks are completely moistened. After the liquid has drained off, the ticks are transferred to a filter paper in a plastic tray and stored in a climate chamber.
After 7 days egg deposition of fertile eggs is monitored. Eggs where fertility is not visible are stored in a climate chamber till hatching after about 42 days. An efficacy of 100% means all eggs are infertile; 0% means all eggs are fertile.

[3] = test system: adult engorged female ticks (Rhipicephalus microplus); assay: Rhipicephalus (Boophilus) microplus injection test; details: 168 h, 4 μg/animal, egg deposition after 7 days, read-out: efficacy (infertile eggs)
Method in brief: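 Five adult engorged female ticks each injected into the abdomen with 1 μL of compound in DMSO, then kept in a climate chamber. Fertile egg deposition assessed after 7 days, with unclear eggs held until hatching around 42 days; efficacy 100% means all eggs infertile, 0% all fertile.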

[4] = test system: adult unfed cat fleas (Ctenocephalides felis); assay: Ctenocephalides felis oral test; details: 48 h
Method in brief: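 About 20 adult unfed fleas fed through parafilm on cattle blood containing compound (DMSO stock diluted in blood), blood held at 37 °C and fleas at room temperature. Mortality (%) scored after 2 days.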

[5] = test system: adult brown dog ticks (Rhipicephalus sanguineus); assay: Rhipicephalus sanguineus in-vitro contact test with adult brown dog ticks; details: 5 μg/cm^2 (=500 g/ha), after 48 hours, read-out: efficacy (ticks dead or moribund)
Method in brief: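 Acetone solution rolled onto tube walls, 2 h at 30 rpm; 900 ppm → 5 μg/cm^2. Solvent evaporated, 5-10 adults/tube, perforated lid, lying, RT. 48 h: heat plate 45-50° C ≤5 min; immotile/uncoordinated = dead/moribund. 100% = all dead/moribund.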

[6] = test system: larvae of the banded cucumber beetle (Diabrotica balteata); assay: Diabrotica balteata spray test; details: 168 h, 100 g/ha (=32 μg/well), wheat seeds, after 7 days, read-out: efficacy (seedling growth)
Method in brief: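 Wheat seeds germinated 1 day on agar were sprayed with compound in acetone/dimethylformamide with alkylarylpolyglycol ether emulsifier, diluted in emulsifier-containing water. Each unit then received 10-20 larvae, and % efficacy was scored after 7 days.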

[7] = test system: green peach aphid (Myzus persicae); assay: Myzus persicae oral test; details: 120 h
Method in brief: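 Compound was dissolved in acetone, diluted with water and mixed into IPL41 insect medium with sugar under a parafilm seal. A mixed aphid population fed through the parafilm, and mortality (%) was scored after 5 days.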

[8] = test system: fall armyworm larvae (Spodoptera frugiperda); assay: Spodoptera frugiperda spray test (maize leaf sections); details: 168 h
Method in brief: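 Maize leaf sections sprayed with compound in acetone/dimethylformamide, diluted in water with 1000 ppm alkylarylpolyglycol ether emulsifier. Dried sections infested with fall armyworm larvae. Mortality (%) scored after 7 days; 100% = all caterpillars killed.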

[9] = test system: adult mosquitoes Aedes aegypti strain MONHEIM; assay: Aedes aegypti test (AEDSAE surface treatment & contact assay); details: surface concentration 20 mg/m^2, 30 min exposure, 24 hours after contact, read-out: efficacy (mortality)
Method in brief: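 Test compound in acetone (2 mg/ml) with 2000 ppm rapeseed oil methyl ester was dried onto a glazed tile. Adult Aedes aegypti MONHEIM were exposed to the treated surface for 30 minutes. Percent mortality was scored 24 hours after contact.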

[10] = test system: adult flies Musca domestica strain WHO-N; assay: Musca domestica test (MUSCDO surface treatment & contact assay); details: 24 hours after contact, read-out: efficacy (mortality)
Method in brief: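 Compound in acetone at 2 mg/ml with 2000 ppm RME pipetted onto glazed tile; after acetone evaporates, adult WHO-N flies exposed on dried surface for 30 min. Percent mortality scored 24 h after contact.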

[11] = test system: larvae of the southern green stink bug (Nezara viridula); assay: Nezara viridula spray test; details: in Hordeum vulgare, 96 h
Method in brief: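 Barley plants sprayed with compound in acetone/dimethylformamide, diluted in water with 1000 ppm alkylarylpolyglycol ether emulsifier, then infested with Nezara viridula larvae. Percent mortality read after 4 days (100% = all killed, 0% = none).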

[12] = test system: larvae of the southern green stink bug (Nezara viridula); assay: Nezara viridula spray test (NEZAVI), comparison; details: 96 h, 500 g ai/ha, 4 dat, read-out: % Efficacy
Method: Nezara viridula—Spray Test (NEZAVI) • Solvent: 78.0 parts by weight of acetone • 1.5 parts by weight of dimethylformamide • Emulsifier: alkylarylpolyglycol ether
(§1) To produce a suitable preparation of active compound, 1 part by weight of active compound is mixed with the stated amount of solvent, and the concentrate is diluted with water, containing an emulsifier concentration of 1000 ppm, to the desired concentration. Further test concentrations are prepared by dilution with emulsifier containing water.
Barley plants (Hordeum vulgare) are sprayed with a test solution containing the desired concentration of the active ingredient and are infested with larvae of the southern green stink bug (Nezara viridula).
After the specified period of time, mortality in % is determined in comparison to the untreated control plant. 100% means all the stink bugs have been killed; 0% means none of the stink bugs have been killed.

[13] = test system: fall armyworm larvae (Spodoptera frugiperda); assay: Spodoptera frugiperda spray test (SPODFR, maize leaf sections), comparison; details: 168 h, 7 dat, read-out: % Efficacy
Method: Spodoptera fruaiperda—Spray Test (SPODFR) • Solvent: 78.0 parts by weight acetone • 1.5 parts by weight dimethylformamide • Emulsifier: alkylarylpolyglycol ether
as §1, with “solvents” for “solvent,”, “and” for “and the concentrate”
Maize (Zea mays) leaf sections are sprayed with a preparation of the active ingredient of the desired concentration. Once dry, the leaf sections are infested with fall armyworm larvae (Spodoptera frugiperda).
After the specified period of time, mortality in % is determined in comparison to the untreated control plant. 100% means all caterpillars have been killed and 0% means none of the caterpillars have been killed.

[14] = test system: larvae of the diamondback moth (Plutella xylostella); assay: Plutella xylostella spray test (PLUTMA), comparison; details: 168 h, 7 dat, read-out: % Efficacy
Method: Plutella xylostella—spray test (PLUTMA) • Solvent: 14 parts by weight of dimethylformamide • Emulsifier: alkylaryl polyglycol ether
as §1, with “solvent” for “solvent,”, “and” for “and the concentrate”, “water. Ammonium salt and/or penetration enhancer in a dosage of 1000 ppm are added to the desired concentration if necessary.” for “water.”
Cabbage leaves (Brassica oleracea) are treated by being sprayed with the preparation of the active compound of the desired concentration and are infested with larvae of the diamondback moth (Plutella xylostella).
After the specified period of time, mortality in % is determined. 100% means all the caterpillars have been killed and 0% means none of the caterpillars have been killed.

[15] = test system: caterpillars of the fall army worm (Spodoptera frugiperda); assay: Spodoptera frugiperda spray test (SPODFR, cotton leaves), comparison; details: 168 h, 7 dat, read-out: % Efficacy
Method: Spodoptera fruaiperda—Spray Test (SPODFR) • Solvent: 14 parts by weight of dimethylformamide • Emulsifier: alkylaryl polyglycol ether
as §1, with “solvent” for “solvent,”, “and” for “and the concentrate”, “water. Ammonium salt and/or penetration enhancer in a dosage of 1000 ppm are added to the desired concentration if necessary.” for “water.”
(§2) Cotton leaves (Gossypium hirsutum) are treated by being sprayed with the preparation of the active compound of the desired concentration and are infested with caterpillars of the fall army worm (Spodoptera frugiperda).
After the specified period of time mortality in % is determined. 100% means all the caterpillars have been killed and 0% means none of the caterpillars have been killed.

[16] = test system: caterpillars of the fall army worm (Spodoptera frugiperda); assay: Spodoptera frugiperda spray test (cotton leaves); details: 168 h, after 7 days
Method: Spodoptera frugiperda—spray test • Solvent: 14 parts by weight of dimethylformamide • Emulsifier: alkylaryl polyglycol ether
as §1, with “solvent” for “solvent,”, “and” for “and the concentrate”, “water. Ammonium salt and/or penetration enhancer in a dosage of 1000 ppm are added to the desired concentration if necessary.” for “water.”
as §2
After 7 days mortality in % is determined. 100% means all the caterpillars have been killed and 0% means none of the caterpillars have been killed.

[17] = test system: adult cat fleas (Ctenocephalides felis); assay: Ctenocephalides felis in-vitro contact test, adult cat flea; details: 5 μg/cm^2 (=500 g/ha), after 48 hours
Method in brief: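 Acetone solutions of compound were coated onto inner walls of glass tubes (900 ppm giving 5 μg/cm^2) and dried; 5-10 adult C. felis were then held 48 h at room temperature. Efficacy = % fleas dead or moribund, judged by inability to escape a 45-50° C heating plate within 5 min.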

SMILES	pest or weed control at 5 µg/cm2 [1] [%]	pest or weed control at 5 µg/cm2, 500 g/ha [5] [%]	pest or weed control at 32 µg/disc, 100 g/ha [6] [%]	mortality at 100 g/ha [8] [%]	stink bug mortality at 500 g/ha [12] [%]	mortality at 20 ppm [16] [%]	efficacy (fleas dead or moribund) [17] [%]	also measured
Cc1nc([C@H](C)NC(=O)c2cc(Br)cc(C(F)(F)F)c2)n(-c2ncc(C#N)s2)n1 [I-14]	100	100	100	100				efficacy (infertile eggs) [2]: 100%; pest or weed control at 0.004 mg [3]: 100%; mortality at 100 ppm [4]: 100%; mortality at 4 ppm [7]: 100%; mortality at 20 mg/m2 [9]: 80 to 100%; mortality at 4 mg/m2 ([10]; surface concentration 4 mg/m^2, 30 min exposure): 90 to 100%; mortality at 20 mg/m2 ([10]; surface concentration 20 mg/m^2, 30 min exposure): 80 to 100%
C[C@H](NC(=O)c1cc(Cl)cc(S(=O)(=O)C(F)(F)F)c1)c1ncnn1-c1ncc(C#N)s1 [I-60]			100	100	100			mortality at 500 g/ha [11]: 100%; larval mortality at 20 g/ha ([13]; 20 g ai/ha): 100%; larval mortality at 100 g/ha ([13]; 100 g ai/ha): 100%
C[C@H](NC(=O)c1cc(Cl)cc(S(=O)(=O)C(F)(F)F)c1)c1ncnn1-c1nccs1 [I-077, reference compound]					0			Emax at 20 g/ha ([13]; 20 g ai/ha): 33%; Emax at 100 g/ha ([13]; 100 g ai/ha): 67%
C[C@H](NC(=O)c1cc(Cl)cc(C(F)(F)F)c1)c1ncnn1-c1ncc(C(F)(F)F)s1 [I-085]								mortality at 20 ppm [14]: 40%; Emax at 4 ppm [15]: 20%
C[C@H](NC(=O)c1cc(OC(F)(F)F)cc(S(C)(=O)=O)c1)c1ncnn1-c1ncc(C#N)s1 [I-93]						100		
C[C@H](NC(=O)c1cc(OC(F)F)cc(OC(F)F)c1)c1ncnn1-c1ncc(C#N)s1 [I-94]	100	100				100	100	
C[C@H](NC(=O)c1cc(Cl)cc(OC(F)(F)F)c1)c1ncnn1-c1ncc(C#N)s1 [I-96]						100		
C[C@H](NC(=O)c1cc(C(F)F)cc(C(F)F)c1)c1ncnn1-c1ncc(C#N)s1 [I-97]	100	100				100	100	
C[C@H](NC(=O)c1cc(OC(F)(F)F)cc(C(F)F)c1)c1ncnn1-c1ncc(C#N)s1 [I-98]	100	100				100	100	
CNC(=O)c1cnc(-n2ncnc2[C@H](C)NC(=O)c2cc(Cl)cc(S(=O)(=O)C(F)(F)F)c2)s1 [I-110]			100	100	100			mortality at 100 g/ha [11]: 90%; mortality at 500 g/ha [11]: 100%; Emax at 20 g/ha ([13]; 20 g ai/ha): 67%; larval mortality at 100 g/ha ([13]; 100 g ai/ha): 100%
